Reference: US20220274947A1, “NOVEL HETEROARYL-TRIAZOLE COMPOUNDS AS PESTICIDES” (Bayer Aktiengesellschaft, priority 2019, published 2022)

Columns and labels:
Format in all cases: in vivo
Diabrotica balteata = Diabrotica balteata spray test; conditions: 168 h, wheat seeds, larvae, after 7 days, read-out: activity (efficacy: 100% means all seedlings have grown up like in the untreated, uninfected control); for pest or weed control at 32 µg/disc, 100 g/ha: application rate 100 g/ha (=32 μg/well); for pest or weed control at 160 µg/disc, 500 g/ha: application rate 500 g/ha (=160 μg/well)
Method in brief: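 Efficacy (%) was scored 7 days after spraying, with 100% meaning growth like the untreated, uninfected control and 0% meaning no seedling grew. Spray solutions of compound in acetone/DMF with emulsifier-containing water went onto 1-day-germinated wheat seeds, and each unit was then infested with 10-20 banded cucumber beetle larvae.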

Ctenocephalides felis [1] = assay: Ctenocephalides felis oral test (CTECFE Oral); conditions: 48 h, read-out: activity (mortality)
Method in brief: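 Percent mortality was recorded 2 days after roughly 20 adult Ctenocephalides felis fed on treated cattle blood. The blood was warmed to 37 °C beneath a parafilm membrane, with the fleas kept at room temperature. Compound was dissolved in DMSO and diluted into the blood to test concentration.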

Ctenocephalides felis [2] = assay: Ctenocephalides felis in-vitro contact test, adult cat flea (CTECFE Cont); conditions: application rate 5 μg/cm^2 (=500 g/ha), adult cat fleas, after 48 hours, read-out: activity (efficacy: 100% means all fleas are dead or moribund)
Method in brief: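 Efficacy, as percent of fleas dead or moribund, was scored 48 h after adults (5-10 per tube) were placed in glass tubes whose walls carried dried compound at 5 μg/cm^2 (900 ppm solution). Moribund meant failing to climb away from a 45-50° C. hot plate within 5 min.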

Spodoptera frugiperda = Spodoptera frugiperda spray test; conditions: in Zea mays, 168 h, read-out: activity (mortality)
Method in brief: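 Percent kill of fall armyworm caterpillars was assessed 7 days after infesting dried, treated maize leaf sections. Treatment was a spray of compound in acetone/dimethylformamide, diluted with water containing emulsifier at 1000 ppm.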

Rhipicephalus microplus [3] = assay: Rhipicephalus (Boophilus) microplus in-vitro contact test, larval cattle tick, strain Parkhurst (BOOPMI Cont); conditions: application rate 5 μg/cm^2 (=500 g/ha), tick larvae, after 48 hours, read-out: activity (efficacy: 100% means all larvae are dead or moribund)
Method in brief: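 After 48 h at 27° C. and 85% humidity, percent dead or moribund larvae was scored from negative geotactic behaviour. Larvae (20-50, Parkhurst strain, synthetic pyrethroid-resistant) were exposed in tubes coated with compound from acetone, 900 ppm corresponding to 5 μg/cm^2.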

Rhipicephalus microplus [4] = assay: Rhipicephalus (Boophilus) microplus injection test (BOOPMI Inj); conditions: 168 h, injection into adult engorged female ticks, egg deposition after 7 days, read-out: activity (efficacy: 100% means all eggs are infertile); for pest or weed control at 0.004 mg: application rate 4 μg/tick; for pest or weed control at 0.02 mg: application rate 20 μg/tick
Method in brief: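 Compound in DMSO, 1 μL, injected abdominally into five adult engorged females, which were then held in a climate chamber. Read-out is egg fertility, scored from deposition at 7 days, with unclear eggs followed to hatching (~42 days); 0% means all eggs fertile, 100% all infertile.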

Nezara viridula = Nezara viridula spray test; conditions: in Hordeum vulgare, 96 h, barley plants, larvae, after 4 days; for mortality at 500 g/ha: application rate 500 g/ha; for mortality at 100 g/ha: application rate 100 g/ha
Method in brief: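 Mortality was read at day 4 (0% = no kill, 100% = total kill) after spraying larva-infested barley plants. Test solutions were made from an acetone/DMF concentrate diluted with water holding 1000 ppm alkylarylpolyglycol ether emulsifier.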

SMILES	pest or weed control at 32 µg/disc, 100 g/ha (Diabrotica balteata)	pest or weed control at 160 µg/disc, 500 g/ha (Diabrotica balteata)	mortality at 100 ppm (Ctenocephalides felis [1])	pest or weed control at 5 µg/cm2 (Ctenocephalides felis [2])	mortality at 100 g/ha (Spodoptera frugiperda)	mortality at 500 g/ha (Spodoptera frugiperda)	pest or weed control at 5 µg/cm2 (Rhipicephalus microplus [3])	pest or weed control at 0.004 mg (Rhipicephalus microplus [4])	pest or weed control at 0.02 mg (Rhipicephalus microplus [4])	mortality at 500 g/ha (Nezara viridula)	mortality at 100 g/ha (Nezara viridula)
CCc1nc([C@H](C)NC(=O)c2cc(C(F)(F)F)cc(C(F)(F)F)c2)n(-c2ccc(C#N)cn2)n1 [I-1]	100%	100%	90%	90%	100%	100%	100%	100%	100%	–	–
CCc1nc([C@H](C)NC(=O)c2cc(Cl)cc(Cl)c2)n(-c2ccc(C#N)cn2)n1 [I-2]	100%	100%	90%	100%	100%	100%	100%	100%	100%	90%	–
CC(C)c1nc([C@H](C)NC(=O)c2cncc(C(F)(F)F)c2)n(-c2ccc(C#N)cn2)n1 [I-30]	100%	–	100%	80%	100%	–	100%	100%	100%	–	–
C[C@H](NC(=O)c1cc(Br)cc(OC(F)(F)F)c1)c1ncnn1-c1ccc(C#N)cn1 [II-14]	100%	100%	100%	100%	100%	100%	100%	100%	100%	100%	100%
Cc1nc([C@H](C)NC(=O)c2cc(Br)cc(C(F)(F)F)c2)n(-c2ccc(C#N)cn2)n1 [II-32]	100%	100%	–	100%	100%	100%	100%	80%	100%	100%	100%
Cc1nc([C@H](C)NC(=O)c2cc(Br)cc(OC(F)(F)F)c2)n(-c2ccc(C#N)cn2)n1 [II-47]	100%	–	100%	100%	100%	–	100%	100%	100%	100%	100%
Cc1nc([C@H](C)NC(=O)c2cc(C#N)cc(C(F)(F)F)c2)n(-c2ccc(C#N)cn2)n1 [II-53]	100%	–	100%	100%	100%	–	100%	100%	100%	–	90%
Cc1nc([C@H](C)NC(=O)c2cc(Br)cc(C#N)c2)n(-c2ccc(C#N)cn2)n1 [II-54]	100%	–	90%	100%	100%	–	100%	100%	100%	–	–
Cc1nc([C@H](C)NC(=O)c2cc(Cl)cc(C#N)c2)n(-c2ccc(C#N)cn2)n1 [II-61]	100%	–	100%	100%	100%	–	100%	100%	100%	–	100%
Cc1nc([C@H](C)NC(=O)c2cc(Cl)cc(C(F)F)c2)n(-c2ccc(C#N)cn2)n1 [II-65]	80%	–	100%	100%	100%	–	100%	100%	100%	–	100%
C[C@H](NC(=O)c1cc(C(F)(F)F)cc(C(F)(F)F)c1)c1ncnn1-c1ccc(C(=O)N(C)CC2CC2)cn1 [II-73]	100%	100%	–	100%	100%	100%	100%	100%	100%	100%	100%
C[C@H](NC(=O)c1cc(OC(F)F)cc(OC(F)F)c1)c1ncnn1-c1ccc(C#N)cn1 [II-77]	100%	–	100%	100%	100%	–	90%	80%	–	–	100%
C[C@H](NC(=O)c1cc(Cl)cc(C(F)(F)F)c1)c1ncnn1-c1ccc(N(C)C(=O)C2CC2)cn1 [II-79]	100%	–	100%	100%	100%	–	100%	100%	–	–	100%
C[C@H](NC(=O)c1cc(C(F)(F)F)cc(C(F)(F)F)c1)c1ncnn1-c1ccc(C(N)=O)cn1 [II-81]	80%	–	100%	100%	100%	–	100%	100%	–	–	100%
C[C@H](NC(=O)c1cc(Br)cc(C(F)F)c1)c1ncnn1-c1ccc(C#N)cn1 [II-83]	100%	–	100%	100%	100%	–	90%	100%	–	–	–
Cc1nc([C@H](C)NC(=O)c2cc(C(F)(F)F)cc(C(F)(F)F)c2)n(-c2ccc(C(=O)N(C)C3CC3)cn2)n1 [II-96]	100%	–	100%	100%	100%	–	100%	100%	–	–	–
Cc1nc([C@H](C)NC(=O)c2cc(C(F)(F)F)cc(C(F)(F)F)c2)n(-c2ccc(C(=O)N(C)CC#N)cn2)n1 [II-99]	100%	–	–	100%	–	–	100%	100%	–	–	100%
C[C@H](NC(=O)c1cc(C(F)F)cc(C(F)F)c1)c1ncnn1-c1ccc(C#N)cn1 [II-101]	100%	–	–	100%	100%	–	100%	100%	–	–	100%
C[C@H](NC(=O)c1cc(OC(F)(F)F)cc(C(F)F)c1)c1ncnn1-c1ccc(C#N)cn1 [II-111]	100%	–	–	100%	100%	–	100%	100%	–	–	100%
C[C@H](NC(=O)c1cc(OC(F)F)cc(C(F)F)c1)c1ncnn1-c1ccc(C#N)cn1 [II-116]	100%	–	–	100%	100%	–	100%	100%	–	–	100%
Cc1nc([C@H](C)NC(=O)c2cc(OC(F)(F)F)cc(C(F)F)c2)n(-c2ccc(C#N)cn2)n1 [II-117]	100%	–	–	100%	100%	–	100%	100%	–	–	100%
